Patent US20070049593A1 (priority 2004, published 2007)
Counter-ions that a name gives are not always drawn.

Target: T1, HCV polymerase (Hepatitis C virus genotype 1b, UniProt P26663)
T1 construct: a region encoding NS5B (J Virol 1991 March, 65(3), 1105-13, 544 amino acids after deletion of 47 amino acids on the C-terminal); 6xHis (C); made in house; host or cells: Escherichia coli
Experiment: biochemical
Set-up: species or system HCV BK strain
In short: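 His-tagged NS5B (BK strain, 47-aa C-terminal deletion, E. coli-expressed) at 0.5 μg/ml copied 5 μg/ml run-off RNA bearing the HCV 3′ UTR with 2 μM UTP plus [3H]UTP, 50 μM ATP/GTP, in pH 7.5 Tris with 5 mM MgCl2, 25 °C, 90 min. TCA-precipitated RNA was counted and IC50 calculated.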

T1 sequence (P26663 2420-2963): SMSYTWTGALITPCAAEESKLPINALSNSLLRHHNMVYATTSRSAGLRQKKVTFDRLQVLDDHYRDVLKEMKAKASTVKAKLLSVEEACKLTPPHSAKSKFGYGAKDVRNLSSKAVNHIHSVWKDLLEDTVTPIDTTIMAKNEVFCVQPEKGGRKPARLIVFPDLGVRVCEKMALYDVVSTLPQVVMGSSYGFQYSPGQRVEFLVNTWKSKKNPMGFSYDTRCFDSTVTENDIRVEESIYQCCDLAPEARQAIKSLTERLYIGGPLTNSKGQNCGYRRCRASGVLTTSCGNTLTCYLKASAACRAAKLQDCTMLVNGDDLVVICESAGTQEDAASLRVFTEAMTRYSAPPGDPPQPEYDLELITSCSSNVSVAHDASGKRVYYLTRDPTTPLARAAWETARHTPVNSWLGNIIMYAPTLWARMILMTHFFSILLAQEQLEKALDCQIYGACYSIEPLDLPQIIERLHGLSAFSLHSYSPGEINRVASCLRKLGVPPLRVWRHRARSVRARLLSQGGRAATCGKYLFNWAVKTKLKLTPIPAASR

SMILES	IC50 [nM]
CN(C)CCN1CCn2c(c(C3CCCCC3)c3ccc(C(=O)O)cc32)-c2ccc(OCc3ccccc3)cc21 [Example 1-228, 3-benzyloxy-13-cyclohexyl-5-(2-dimethylaminoethyl)-6,7-dihydro-5H-benzo[5,6][1,4]diazepino[7,1-a]indole-10-carboxylic acid dihydrochloride]	< 100
CC(C)N1CCCC(CCN2CCn3c(c(C4CCCCC4)c4ccc(C(=O)O)cc43)-c3ccc(Cl)cc32)C1 (centres unmarked) [Example 1-229, 3-chloro-13-cyclohexyl-5-[2-(1-isopropylpiperidin-3-yl)ethyl]-6,7-dihydro-5H-benzo[5,6][1,4]diazepino[7,1-a]indole-10-carboxylic acid dihydrochloride]	< 100
CCCN1CCCC(CCN2CCn3c(c(C4CCCCC4)c4ccc(C(=O)O)cc43)-c3ccc(Cl)cc32)C1 (centres unmarked) [Example 1-230, 3-chloro-13-cyclohexyl-5-[2-(1-propylpiperidin-3-yl)ethyl]-6,7-dihydro-5H-benzo[5,6][1,4]diazepino[7,1-a]indole-10-carboxylic acid dihydrochloride]	< 100
CN(CCN1CCn2c(c(C3CCCCC3)c3ccc(C(=O)O)cc32)-c2ccccc21)C1CCCCC1 [Example 1-231, 13-cyclohexyl-5-[2-(N-cyclohexyl-N-methylamino)ethyl]-6,7-dihydro-5H-benzo[5,6][1,4]diazepino[7,1-a]indole-10-carboxylic acid]	< 100
CS(=O)(=O)N1CCCN(CCN2CCn3c(c(C4CCCCC4)c4ccc(C(=O)O)cc43)-c3ccccc32)CC1 [Example 1-232, 13-cyclohexyl-5-[2-(4-methanesulfonyl-1,4-diazepan-1-yl)ethyl]-6,7-dihydro-5H-benzo[5,6][1,4]diazepino[7,1-a]indole-10-carboxylic acid dihydrochloride]	< 100
COC(=O)N1CCCN(CCN2CCn3c(c(C4CCCCC4)c4ccc(C(=O)O)cc43)-c3ccccc32)CC1 [Example 1-233, 13-cyclohexyl-5-[2-(4-methoxycarbonyl-1,4-diazepan-1-yl)ethyl]-6,7-dihydro-5H-benzo[5,6][1,4]diazepino[7,1-a]indole-10-carboxylic acid dihydrochloride]	< 100
O=C(O)c1ccc2c(C3CCCCC3)c3n(c2c1)CCN(CCN1CCCCCC1)c1cc(F)ccc1-3 [Example 1-234, 5-[2-(azepan-1-yl)ethyl]-13-cyclohexyl-3-fluoro-6,7-dihydro-5H-benzo[5,6][1,4]diazepino[7,1-a]indole-10-carboxylic acid dihydrochloride]	< 100
O=C(O)c1ccc2c(C3CCCCC3)c3n(c2c1)CC(=O)N(CCN1CCCCC1)c1ccccc1-3 [Example 1-235, 13-cyclohexyl-6-oxo-5-[2-(piperidin-1-yl)ethyl]-6,7-dihydro-5H-benzo[5,6][1,4]diazepino[7,1-a]indole-10-carboxylic acid monohydrochloride]	< 100
COC(=O)N(C)CCN(C)CCN1CCn2c(c(C3CCCCC3)c3ccc(C(=O)O)cc32)-c2ccccc21 [Example 1-236, 13-cyclohexyl-5-(2-{N-[2-(N-methoxycarbonyl-N-methylamino)ethyl]-N-methylamino}ethyl)-6,7-dihydro-5H-benzo[5,6][1,4]diazepino[7,1-a]indole-10-carboxylic acid dihydrochloride]	< 100
CC1CCN(CCN2CCn3c(c(C4CCCCC4)c4ccc(C(=O)O)cc43)-c3ccccc32)C1 (centres unmarked) [Example 1-237, 13-cyclohexyl-5-[2-(3-methylpyrrolidin-1-yl)ethyl]-6,7-dihydro-5H-benzo[5,6][1,4]diazepino[7,1-a]indole-10-carboxylic acid dihydrochloride]	< 100
COC1CCN(CCN2CCn3c(c(C4CCCCC4)c4ccc(C(=O)O)cc43)-c3ccccc32)C1 (centres unmarked) [Example 1-238, 13-cyclohexyl-5-[2-(3-methoxypyrrolidin-1-yl)ethyl]-6,7-dihydro-5H-benzo[5,6][1,4]diazepino[7,1-a]indole-10-carboxylic acid dihydrochloride]	< 100
CCN1CCCN(C(=O)CN2CCn3c(c(C4CCCCC4)c4ccc(C(=O)O)cc43)-c3ccccc32)CC1 [Example 1-239, 13-cyclohexyl-5-[2-(4-ethyl-1,4-diazepan-1-yl)-2-oxoethyl]-6,7-dihydro-5H-benzo[5,6][1,4]diazepino[7,1-a]indole-10-carboxylic acid dihydrochloride]	< 100
CC(C)N1CCC(CCN2CCn3c(c(C4CCCCC4)c4ccc(C(=O)O)cc43)-c3ccc(Cl)cc32)CC1 [Example 1-240, 3-chloro-13-cyclohexyl-5-[2-(1-isopropylpiperidin-4-yl)ethyl]-6,7-dihydro-5H-benzo[5,6][1,4]diazepino[7,1-a]indole-10-carboxylic acid dihydrochloride]	< 100
Cc1cccc2c1-c1c(C3CCCCC3)c3ccc(C(=O)O)cc3n1CCN2CCN1CCCCC1 [Example 1-241, 13-cyclohexyl-1-methyl-5-[2-(piperidin-1-yl)ethyl]-6,7-dihydro-5H-benzo[5,6][1,4]diazepino[7,1-a]indole-10-carboxylic acid dihydrochloride]	< 100
O=C(O)c1ccc2c(C3CCCCC3)c3n(c2c1)CCN(CCCN1CCCCC1)c1cc(Cl)ccc1-3 [Example 1-242, 3-chloro-13-cyclohexyl-5-[3-(piperidin-1-yl)propyl]-6,7-dihydro-5H-benzo[5,6][1,4]diazepino[7,1-a]indole-10-carboxylic acid dihydrochloride]	< 100
CCN1CCC(CCN2CCn3c(c(C4CCCCC4)c4ccc(C(=O)O)cc43)-c3ccc(Cl)cc32)CC1 [Example 1-243, 3-chloro-13-cyclohexyl-5-[2-(1-ethylpiperidin-4-yl)ethyl]-6,7-dihydro-5H-benzo[5,6][1,4]diazepino[7,1-a]indole-10-carboxylic acid dihydrochloride]	< 100
O=C(O)c1ccc2c(C3CCCCC3)c3n(c2c1)CCN(CCC1CCNCC1)c1cc(Cl)ccc1-3 [Example 1-244, 3-chloro-13-cyclohexyl-5-[2-(piperidin-4-yl)ethyl]-6,7-dihydro-5H-benzo[5,6][1,4]diazepino[7,1-a]indole-10-carboxylic acid dihydrochloride]	< 100
O=C(O)c1ccc2c(C3CCCCC3)c3n(c2c1)CCN(CCCN1CCCCCC1)c1cc(Cl)ccc1-3 [Example 1-245, 5-[3-(azepan-1-yl)propyl]-3-chloro-13-cyclohexyl-6,7-dihydro-5H-benzo[5,6][1,4]diazepino[7,1-a]indole-10-carboxylic acid dihydrochloride]	< 100
CN1CCC(CCN2CCn3c(c(C4CCCCC4)c4ccc(C(=O)O)cc43)-c3ccc(Cl)cc32)CC1 [Example 1-246, 3-chloro-13-cyclohexyl-5-[2-(1-methylpiperidin-4-yl)ethyl]-6,7-dihydro-5H-benzo[5,6][1,4]diazepino[7,1-a]indole-10-carboxylic acid dihydrochloride]	< 100
CN(C)CCCN1CCn2c(c(C3CCCCC3)c3ccc(C(=O)O)cc32)-c2ccc(Cl)cc21 [Example 1-247, 3-chloro-13-cyclohexyl-5-(3-dimethylaminopropyl)-6,7-dihydro-5H-benzo[5,6][1,4]diazepino[7,1-a]indole-10-carboxylic acid dihydrochloride]	< 100
O=C(O)c1ccc2c(C3CCCCC3)c3n(c2c1)CCN(CCN1CCCCC1)c1cc(F)c(F)cc1-3 [Example 1-248, 13-cyclohexyl-2,3-difluoro-5-[2-(piperidin-1-yl)ethyl]-6,7-dihydro-5H-benzo[5,6][1,4]diazepino[7,1-a]indole-10-carboxylic acid dihydrochloride]	< 100
CCC1CCCN(CCN2CCn3c(c(C4CCCCC4)c4ccc(C(=O)O)cc43)-c3ccc(Cl)cc32)C1 (centres unmarked) [Example 1-249, 3-chloro-13-cyclohexyl-5-[2-(3-ethylpiperidin-1-yl)ethyl]-6,7-dihydro-5H-benzo[5,6][1,4]diazepino[7,1-a]indole-10-carboxylic acid dihydrochloride]	< 100
COC(=O)N1CCC(N(C)CCN2CCn3c(c(C4CCCCC4)c4ccc(C(=O)O)cc43)-c3ccccc32)C1 (centres unmarked) [Example 1-250, 13-cyclohexyl-5-{2-[N-(1-methoxycarbonylpyrrolidin-3-yl)-N-methylamino]ethyl}-6,7-dihydro-5H-benzo[5,6][1,4]diazepino[7,1-a]indole-10-carboxylic acid monohydrochloride]	< 100
CC(=O)N1CCC(N(C)CCN2CCn3c(c(C4CCCCC4)c4ccc(C(=O)O)cc43)-c3ccccc32)C1 (centres unmarked) [Example 1-251, 5-{2-[N-(1-acetylpyrrolidin-3-yl)-N-methylamino]ethyl}-13-cyclohexyl-6,7-dihydro-5H-benzo[5,6][1,4]diazepino[7,1-a]indole-10-carboxylic acid monohydrochloride]	< 100
CN(CCN1CCn2c(c(C3CCCCC3)c3ccc(C(=O)O)cc32)-c2ccccc21)C1CCN(S(C)(=O)=O)C1 (centres unmarked) [Example 1-252, 13-cyclohexyl-5-{2-[N-(1-methanesulfonylpyrrolidin-3-yl)-N-methylamino]ethyl}-6,7-dihydro-5H-benzo[5,6][1,4]diazepino[7,1-a]indole-10-carboxylic-acid]	< 100
Cc1ccc2c(c1)N(CCN1CCCC(C)C1)CCn1c-2c(C2CCCCC2)c2ccc(C(=O)O)cc21 (centres unmarked) [Example 1-253, 13-cyclohexyl-3-methyl-5-[2-(3-methylpiperidin-1-yl)ethyl]-6,7-dihydro-5H-benzo[5,6][1,4]diazepino[7,1-a]indole-10-carboxylic acid dihydrochloride]	< 100
